According to PubChem BioAssay AID2060505 (Molecular Pharmacology Branch, DTP, NCI, 2025):

System: 633275-114-R-J1-PDC complex spheroids, viability
Experiment: Anticancer human tumor 633275-114-R-J1-PDC patient-derived endometrial adenocarcinoma cell line growth inhibition [GQUAD]
Details: for IC50: curve of first compound; for viability, T/C: stronger effect = lower value
Excerpt: DNA G-quadruplex Stabilizer Agents in Combinations in Complex Spheroids
A high-throughput screen of multi-cell type tumor spheroids was designed to identify active combinations of DNA G-quadruplex stabilizer agents and targeted small molecules. Complex spheroids include a stromal component modeled by human endothelial cells (HUVEC) and fibroblasts modeled by human mesenchymal stem cells (MSCs). The concentration ranges selected for each drug and investigational agent were based upon clinically achievable concentrations if the clinical Cmax of the agent was known.
Compounds. The drugs and investigational agents: pidnarulex (CX-5461; NSC782164), APTO-253 (NSC789042), BRACO-19 (NSC847499), peposertib (NSC802822), ceralasertib (NSC780249), elimusertib (NSC800525), camonsertib (NSC841442), AZD-1390 (NSC803789), olaparib (NSC753686), talazoparib (NSC767125), ART-558 (NSC835418), sotorasib (NSC818433), MRTX-1133 (NSC836407), SN-38 (NSC673596), topotecan (NSC609699), etoposide (NSC141540), doxorubicin (NSC123127), gemcitabine (NSC613327), 5-fluorouracil (NSC19893), paclitaxel (NSC125973), vemurafenib (NSC761431), panobinostat (NSC761190), R-306465 (JNJ-16241199; NSC773264), adavosertib (NSC754352), TP-3654 (NSC805149), carboplatin (NSC241240), KSQ-4279 (NSC840948), and staurosporine (NSC755774) were obtained from the National Cancer Institute (NCI) Developmental Therapeutics Program Chemical Repository (34). The FDA-approved anticancer drug set is available from the NCI Developmental Therapeutics Program. […] The stock solutions were prepared in dimethyl sulfoxide (DMSO, Sigma-Aldrich, St. Louis, MO, cat. D2650) at 800-fold the tested concentration and stored at -70 degrees C prior to their use. All drugs and investigational agents were tested over a range starting from a high concentration at or near the clinical Cmax and decreasing in half-log increments. If the clinical Cmax for an agent had not been determined, the highest concentration tested was 10 microM.
2.3 Cell Culture. All cells were maintained in an incubator at 37 degrees C and 5% CO2 with 95% humidity. The PDC lines were cultured according to standard operating procedures established by the NCI PDMR. All PDCs were thawed and cultured in Matrigel-coated flasks prepared with a working solution of 1X Ham's F-12 nutrient mix, without supplementation (Invitrogen, cat. 11765054), 100 U/mL penicillin-streptomycin (Invitrogen, cat. 15140122), and 2.5% Matrigel (Corning Inc., cat. 354248) for the first three passages. The 857933-349-R-J2-PDC line was cultured in 6C/Colon 1B media, which includes advanced DMEM/F-12 (Thermo Fisher Scientific, cat. 12634028), 10 mM HEPES (Thermo Fisher Scientific, cat. 15630080), 1X GlutaMAX supplement (Thermo Fisher Scientific, cat. 35050061), 0.1 mg/mL primocin (InvivoGen, cat. ant-pm-2), 10% defined fetal bovine serum, heat inactivated (HyClone Laboratories Inc., cat. SH30070.03HI), 50% L-WRN conditioned media (ATCC, cat. CRL-3276), 1.25 mM N-Acetyl-L-cysteine (Sigma-Aldrich, cat. A9165), 10 mM nicotinamide (Sigma-Aldrich, cat. N0636), 1X B-27 supplement (Thermo Fisher Scientific, cat. 17504044), 1X N-2 supplement (Thermo Fisher Scientific, cat. 17502048), 10 microM Y-27632 dihydrochloride (Tocris Bioscience, cat. 1254), and 50 ng/mL human EGF recombinant protein (Thermo Fisher Scientific, cat. PHG0311). The 485176-168-R4-J1-PDC line was cultured in Panc media, which includes all 6C/Colon 1B media components plus 100 ng/mL human FGF-10 (Thermo Fisher Scientific, cat. 100-26), 500 nM SB-431542 (Selleckchem, cat. S1067), and gastrin (Tocris, cat. 3006).
[…]

[1] = second compound 0.0316 µM, first compound 0.0316 µM
[2] = second compound 0.0316 µM, first compound 0.316 µM
[3] = second compound 0.1 µM, first compound 0.0316 µM
[4] = second compound 0.1 µM, first compound 0.316 µM
[5] = second compound 0.316 µM, first compound 0.0316 µM
[6] = second compound 0.316 µM, first compound 0.316 µM
[7] = second compound 1 µM, first compound 0.0316 µM
[8] = second compound 1 µM, first compound 0.316 µM
[9] = second compound 3.16 µM, first compound 0.0316 µM
[10] = second compound 3.16 µM, first compound 0.316 µM
[11] = second compound 10 µM, first compound 0.0316 µM
[12] = second compound 10 µM, first compound 0.316 µM
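Further: spheroids exposed to the agents for seven days.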
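Wherever viability, T/C is given: percent of DMSO vehicle control viability which is 100%.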

In the case of `CC[C@@]1(O)C(=O)OCc2c1cc1n(c2=O)Cc2cc3c(CN(C)C)c(O)ccc3nc2-1` + Cc1[nH]c2ccc(F)cc2c1-c1nc2c3cccnc3c3ncccc3c2[nH]1, the IC50 (second compound 0.0316 µM) is reported as 79.9 nM, the IC50 (second compound 0.1 µM) is reported as 83.9 nM and the IC50 (second compound 0.316 µM) is reported as 74.4 nM. For the same compound, the IC50 (second compound 1 µM) was 73.1 nM, the IC50 (second compound 3.16 µM) was 46.3 nM and the IC50 (second compound 10 µM) was 43.4 nM. It also gave a viability, T/C (second compound 0.0316 µM, first compound 0.000999 µM) of 98.6%, a viability, T/C (second compound 0.0316 µM, first compound 0.00316 µM) of 91.9% and a viability, T/C (second compound 0.0316 µM, first compound 0.00999 µM) of 86.8%. For the same compound, the viability, T/C [1] was 69.6%, the viability, T/C (second compound 0.0316 µM, first compound 0.0999 µM) was 43.9% and the viability, T/C [2] was 36.9%. For the same compound, the viability, T/C (second compound 0.1 µM, first compound 0.000999 µM) was 93.8%, the viability, T/C (second compound 0.1 µM, first compound 0.00316 µM) was 93.6% and the viability, T/C (second compound 0.1 µM, first compound 0.00999 µM) was 87.7%. The viability, T/C [3] was 73.4%, the viability, T/C (second compound 0.1 µM, first compound 0.0999 µM) was 45.3% and the viability, T/C [4] was 35.8%. The viability, T/C (second compound 0.316 µM, first compound 0.000999 µM) was 94%, the viability, T/C (second compound 0.316 µM, first compound 0.00316 µM) was 99.1% and the viability, T/C (second compound 0.316 µM, first compound 0.00999 µM) was 88.2%. For the same compound, the viability, T/C [5] was 71.2%, the viability, T/C (second compound 0.316 µM, first compound 0.0999 µM) was 41.8% and the viability, T/C [6] was 36.5%. For the same compound, the viability, T/C (second compound 1 µM, first compound 0.000999 µM) was 90.4%, the viability, T/C (second compound 1 µM, first compound 0.00316 µM) was 91.8% and the viability, T/C (second compound 1 µM, first compound 0.00999 µM) was 79.3%. It also gave a viability, T/C [7] of 68%, a viability, T/C (second compound 1 µM, first compound 0.0999 µM) of 41.9% and a viability, T/C [8] of 36.3%. It also gave a viability, T/C (second compound 3.16 µM, first compound 0.000999 µM) of 71.7%, a viability, T/C (second compound 3.16 µM, first compound 0.00316 µM) of 70.4% and a viability, T/C (second compound 3.16 µM, first compound 0.00999 µM) of 69.1%. For the same compound, the viability, T/C [9] was 56.5%, the viability, T/C (second compound 3.16 µM, first compound 0.0999 µM) was 37.1% and the viability, T/C [10] was 33.2%. The viability, T/C (second compound 10 µM, first compound 0.000999 µM) was 66.5%, the viability, T/C (second compound 10 µM, first compound 0.00316 µM) was 74.4% and the viability, T/C (second compound 10 µM, first compound 0.00999 µM) was 71%. The viability, T/C [11] was 54.6%, the viability, T/C (second compound 10 µM, first compound 0.0999 µM) was 36.5% and the viability, T/C [12] was 29.7%.
In the case of `O=C(NO)c1cnc(N2CCN(S(=O)(=O)c3ccc4ccccc4c3)CC2)nc1` + CN(C)c1ccc(Nc2c3ccc(NC(=O)CCN4CCCC4)cc3nc3cc(NC(=O)CCN4CCCC4)ccc23)cc1, the IC50 (second compound 0.0316 µM) is reported as 206 nM, the IC50 (second compound 0.1 µM) is reported as 150 nM and the IC50 (second compound 0.316 µM) is reported as 170 nM. The IC50 (second compound 1 µM) was 158 nM, the IC50 (second compound 3.16 µM) was 138 nM and the IC50 (second compound 10 µM) was < 31.6 nM. It also gave a viability, T/C [1] of 75.1%, a viability, T/C (second compound 0.0316 µM, first compound 0.1 µM) of 64.9% and a viability, T/C [2] of 40.4%. The viability, T/C (second compound 0.0316 µM, first compound 1 µM) was 22.8%, the viability, T/C (second compound 0.0316 µM, first compound 3.16 µM) was 11.5% and the viability, T/C (second compound 0.0316 µM, first compound 10 µM) was 4.89%. It also gave a viability, T/C [3] of 68.3%, a viability, T/C (second compound 0.1 µM, first compound 0.1 µM) of 58.4% and a viability, T/C [4] of 35.5%. The viability, T/C (second compound 0.1 µM, first compound 1 µM) was 19.6%, the viability, T/C (second compound 0.1 µM, first compound 3.16 µM) was 10.5% and the viability, T/C (second compound 0.1 µM, first compound 10 µM) was 5.36%. The viability, T/C [5] was 80.9%, the viability, T/C (second compound 0.316 µM, first compound 0.1 µM) was 62% and the viability, T/C [6] was 35.7%. The viability, T/C (second compound 0.316 µM, first compound 1 µM) was 20.1%, the viability, T/C (second compound 0.316 µM, first compound 3.16 µM) was 12.1% and the viability, T/C (second compound 0.316 µM, first compound 10 µM) was 4.98%. The viability, T/C [7] was 70.1%, the viability, T/C (second compound 1 µM, first compound 0.1 µM) was 58.3% and the viability, T/C [8] was 37.9%. For the same compound, the viability, T/C (second compound 1 µM, first compound 1 µM) was 18.3%, the viability, T/C (second compound 1 µM, first compound 3.16 µM) was 12.2% and the viability, T/C (second compound 1 µM, first compound 10 µM) was 5.49%. For the same compound, the viability, T/C [9] was 62.6%, the viability, T/C (second compound 3.16 µM, first compound 0.1 µM) was 55% and the viability, T/C [10] was 37.5%. The viability, T/C (second compound 3.16 µM, first compound 1 µM) was 15.6%, the viability, T/C (second compound 3.16 µM, first compound 3.16 µM) was 9.85% and the viability, T/C (second compound 3.16 µM, first compound 10 µM) was 2.65%. The viability, T/C [11] was 30.4%, the viability, T/C (second compound 10 µM, first compound 0.1 µM) was 26.4% and the viability, T/C [12] was 16.3%. It also gave a viability, T/C (second compound 10 µM, first compound 1 µM) of 6.49%, a viability, T/C (second compound 10 µM, first compound 3.16 µM) of 1.21% and a viability, T/C (second compound 10 µM, first compound 10 µM) of 0.19%.
